Test results: PMC3118037 (International journal for parasitology, 2011)

Experiments:
[1] = tested on: dispersed schistosome muscle fibres
[2] = tested on: dispersed schistosome muscle fibres; settings: ref Day et al., 1997; cited from earlier work

Row | Substance | activity in isolated muscle cell assays [1] | effect on individual / dispersed schistosome muscle cells (fibres) [2]
1 | GFVRIamide | lacked measurable activity | –
2 | YIRF-OH | – | lack of effect
3 | YIRFamide | – | potent myoexcitatory effect
